According to patent EP0085870A1, “Dibenz(b,e)oxepin derivatives and pharmaceutical compositions containing them” (KYOWA HAKKO KOGYO CO., LTD, priority 1982, dated 1983):

Columns and labels:
male dd-strain mice = experiment: Acute toxicity test; type: in vivo; settings: mortality for 7 days after administration
Description: Groups of male dd-strain mice (each croup consisting of five mice) weighing 20 + 1 g are used. Compound I are administered orally (po : 0.3 mg/g) or intraperitoneally (ip : 0.1 mg/g). The MLD lethal dose) is calculated from the mortality for 7 days after the administration to obtain the results given in Table 1.

PCA response = experiment: Antiasthmatic activity test: passive cutaneous anaphylaxis response (PCA response); type: in vivo, Wistar strain male rats; settings: Rattus norvegicus, rats; for minimal effective dose: po, minimum effective dose, depressing ratio of 50% or more counts as positive, read-out: MED; for inhibition in vivo at 2.5 mg/kg: Dose 2.5 mg/Kg PO; for inhibition in vivo at 5 mg/kg: Dose 5 mg/Kg PO; for inhibition in vivo at 10 mg/kg: Dose 10 mg/Kg PO; for inhibition in vivo at 25 mg/kg: Dose 25 mg/Kg PO; for inhibition in vivo at 50 mg/kg: Dose 50 mg/Kg PO; for inhibition in vivo at 100 mg/kg: Dose 100 mg/Kg PO
Description: Antiasthmatic activity is evaluated according to passive cutaneous anaphylaxis response (PCA response). Antiserum is collected from Wistar strain male rats weighing 200 to 250 g. PCA response is evaluated using Wistar strain male rats weighing 100 to 120 g.
One mg of egg albumin is dissolved in 0.5 ml of pertussisdiphtheria mixed vaccine, and the resulting solution is mixed with 0.5 ml of incomplete adjuvant. The resulting emulsion is used as antigen and administered to rats subcutaneously through the sole. On the 12th day after the administration, heads of the rats are cut to collect blood. Thus, antiserum is prepared.
Upon evaluating antiasthmatic activity, concentration of the antiserum is adjusted so that diameter of blue-dyed portion is about 8 to about 10 mm.
Six rats are used per group. 0.05 ml of the antiserum is intracutaneously administered to each of the previously back-shaved rats to sensitize. After 17 hours, compound I or the solutions thereof (physiological salt solution or CMC solution) are respectively administered and, after 60 minutes, an antigen mixture (1% Evans' Blue physiological salt solution containing 0.2% egg albumin) is injected intravenously in an amount of 0.5 ml/100 g to induce PCA. response. After 30 minutes, rats are choked to death followed by cutting out skin to measure the diameter of blue-dyed portion. The results are evaluated by awarding a score according to the diameter of blue―dved portion. Furthermore, ratios of the diameters to that of solvent (psysiological salt solution or CMC) administered group are snowing a depressing ratio of 50% or more calculated according to the following formula are concluded to show positive antiasthmatic activity. Also, the minimum effective dose (MED) is determined from the results with respective doses to compare the strength of entrasthamatis activity.

[1] = given 60 minutes before antigen, read-out: depressing ratio

| Structure (SMILES) | MLD (male dd-strain mice; ip) | MLD (male dd-strain mice; po) | minimal effective dose (PCA response) | inhibition in vivo at 1 mg/kg (PCA response; Dose 1 mg/Kg PO, given 60 minutes before antigen, read-out: depressing ratio) | inhibition in vivo at 2.5 mg/kg (PCA response; [1]) | inhibition in vivo at 5 mg/kg (PCA response; [1]) | inhibition in vivo at 10 mg/kg (PCA response; [1]) | inhibition in vivo at 25 mg/kg (PCA response; [1]) | inhibition in vivo at 50 mg/kg (PCA response; [1]) | inhibition in vivo at 100 mg/kg (PCA response; [1]) |
| --- | --- | --- | --- | --- | --- | --- | --- | --- | --- | --- |
| Cc1ccc2c(c1)C(SCCN(C)C)c1ccccc1CO2 (stereo not drawn) [Compound 1, 2-methyl-11-[2-(dimethylamino)ethyl]thio-6,11-dihydrodibenz[b,e]oxepin] | >100 mg/kg | >300 mg/kg | 2.5 mg/kg | 49% | 81% | 100% | 100% | 100% | 100% | 100% |
| CCN(CC)CCSC1c2ccccc2COc2ccc(C)cc21 (stereo not drawn) [Compound 2, 2-methyl-11-[2-(diethylamino)ethyl]thio-6,11-dihydrodibenz[b,e]oxepin] | >100 mg/kg | >300 mg/kg | 10 mg/kg | – | 20% | 40% | 52% | 100% | 100% | 100% |
| CCN(CC)CCSC1c2ccccc2COc2c(C)cccc21 (stereo not drawn) [Compound 3, 4-methyl-11-[2-(diethylamino)ethyl]thio-6,11-dihydrodibenz[b,e]oxepin] | >100 mg/kg | >300 mg/kg | 100 mg/kg | – | – | – | – | – | 14% | 52% |
| CCN(CC)CCSC1c2ccccc2COc2ccc(Cl)cc21 (stereo not drawn) [Compound 4, 2-chloro-11-[2-(diethylamino)ethyl]thio-6,11-dihydrodibenz[b,e]oxepin] | >100 mg/kg | >300 mg/kg | 50 mg/kg | – | – | – | 10% | 46% | 100% | 100% |
| CCc1ccc2c(c1)C(SCCN(CC)CC)c1ccccc1CO2 (stereo not drawn) [Compound 5, 2-ethyl-11-[2-(diethylamino)ethyl]thio-6,11-dihydrodibenz[b,e]oxepin] | 100 mg/kg | >300 mg/kg | 10 mg/kg | – | – | 36% | 56% | 100% | 100% | 100% |
| CCN(CC)CCSC1c2ccccc2COc2ccc(F)cc21 (stereo not drawn) [Compound 6, 2-fluoro-11-[2-(diethylamino)ethyl]thio-6,11-dihydrodibenz[b,e]oxepin] | >100 mg/kg | >300 mg/kg | 25 mg/kg | – | – | – | 3% | 84% | 100% | 100% |
| CCc1ccc2c(c1)C(SCCN(C)C)c1ccccc1CO2 (stereo not drawn) [Compound 7, 2-ethyl-11-[2-(dimethylamino)ethyl]thio-6,11-dihydrodibenz[b,e]oxepin] | >100 mg/kg | >300 mg/kg | 5 mg/kg | – | 30% | 81% | 100% | 100% | 100% | 100% |
| CN(C)CCSC1c2ccccc2COc2ccc(F)cc21 (stereo not drawn) [Compound 8, 2-fluoro-11-[2-(dimethylamino)ethyl]thio-6,11-dihydrodibenz[b,e]oxepin] | >100 mg/kg | >300 mg/kg | 25 mg/kg | – | – | 23% | 33% | 100% | 100% | 100% |
| CCc1ccc2c(c1)C(SCCN(C(C)C)C(C)C)c1ccccc1CO2 (stereo not drawn) [Compound 9, 2-ethyl-11-[2-(diisopropylamino)ethyl]thio-6,11-dihydrodibenz[b,e]oxepin] | >100 mg/kg | >300 mg/kg | 25 mg/kg | – | – | – | 22% | 67% | 100% | 100% |
| CC(C)N(CCSC1c2ccccc2COc2ccc(F)cc21)C(C)C (stereo not drawn) [Compound 10, 2-fluoro-11-[2-(diisopropylamino)ethyl]thio-6,11-dihydrodibenz[b,e]oxepin] | >100 mg/kg | >300 mg/kg | 100 mg/kg | – | – | – | 0% | 11% | 11% | 73% |
| Cc1ccc2c(c1)OCc1ccccc1C2SCCN(C)C (stereo not drawn) [Compound 11, 3-methyl-11-[2-(dimethylamino)ethyl]thio-6,11-dihydrodibenz[b,e]oxepin] | >100 mg/kg | >300 mg/kg | 50 mg/kg | – | – | – | 0% | 28% | 61% | 61% |
